Data: patent US5990158A, “Carboxylic acid derivatives, method of manufacturing the same and therapeutic agents containing these compounds” (Kotobuki Seiyaku Co., Ltd., priority 1996, dated 1999)
pIC50: −log10 of the molar value.

Experiments:
[1] = biological target: T1, MMP-2 (gelatinase A) (Homo sapiens, UniProt P08253); assay: MMP-2 (gelatinase A) inhibitory activity, FITC-labeled type IV collagen degradation; type: biochemical; details: 50% inhibition of collagen type IV degradation; activated pro MMP-2 from transfected COS-1 cells; 42° C., 4 h
T1 construct: made in house; host or cells: COS-1 cells transfected with human pro-MMP-2 cDNA (secreted into culture medium)
T1 sequence (P08253 110-660): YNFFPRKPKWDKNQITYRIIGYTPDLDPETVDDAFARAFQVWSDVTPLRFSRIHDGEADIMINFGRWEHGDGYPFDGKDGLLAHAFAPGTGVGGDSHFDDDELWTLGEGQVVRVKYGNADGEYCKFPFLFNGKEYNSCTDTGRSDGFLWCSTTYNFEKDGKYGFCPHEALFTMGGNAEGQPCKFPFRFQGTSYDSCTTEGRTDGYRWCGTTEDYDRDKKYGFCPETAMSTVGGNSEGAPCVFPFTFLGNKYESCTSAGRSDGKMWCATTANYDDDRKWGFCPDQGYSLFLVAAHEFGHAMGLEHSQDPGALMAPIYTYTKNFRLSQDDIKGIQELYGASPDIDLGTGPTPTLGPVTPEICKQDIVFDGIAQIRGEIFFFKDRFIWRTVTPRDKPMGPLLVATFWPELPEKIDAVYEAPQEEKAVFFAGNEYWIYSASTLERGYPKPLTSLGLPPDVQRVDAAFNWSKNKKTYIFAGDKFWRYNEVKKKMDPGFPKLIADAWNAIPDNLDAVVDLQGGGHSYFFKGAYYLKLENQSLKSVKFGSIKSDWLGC
Experimental: (§1) Experiment 2: MMP-2 (gelatinase A) and MMP-9 (gelatinase B) inhibitory activities.
(§2) Pro MMP-2 was obtained from culture medium separated from human pro-MMP-2 cDNA tranfected COS-1 cells. It was activated by 1 mM (p-aminophenyl)mercury acetic acid, and MMP-9, derived human fibrosarcome,was purchased from Yagai Co. Ltd. Inhibition of both enzyme activities were estimated by enzyme assay using type IV collagenase activity assay kit (Yagai Co. Ltd., Biswaz, C. et al., J. Cell.Biochem., 28, 39 (1984)). MMP-2 or MMP-9 (0.01 U/ml), test compound (several concentrations), and FITC-labeled type IV collagen (derived bovine placenta, 25 μg) were incubated in 100 μl of 0.05M Tris - HCl buffer (pH 7.5) containing 200 mM NaCl and 5 mM CaCl2 at 42° C. for 4 h. Inhibitory activity of compound was evaluated by same as that of MMP-1 assay. Unchanged type IV collagen was precipitated by centrifugation, and the degradation percent of substrate was calculated by comparison with a fluorescence intensity of heat denatured substrate as 100%. Inhibition of enzyme activity was expressed as an IC50 value which was the concentration of test compound necessary to produce 50% inhibition of collagen type IV degradation by enzyme.

[2] = biological target: T2, MMP-9 (gelatinase B) (Homo sapiens, UniProt P14780); assay: MMP-9 (gelatinase B) inhibitory activity, FITC-labeled type IV collagen degradation; type: biochemical; details: 50% inhibition of collagen type IV degradation; MMP-9 derived from human fibrosarcoma; 42° C., 4 h
T2 construct: purchased Yagai Co. Ltd; host or cells: human fibrosarcoma
Experimental: as §1, §2

T2 sequence (P14780 94-707): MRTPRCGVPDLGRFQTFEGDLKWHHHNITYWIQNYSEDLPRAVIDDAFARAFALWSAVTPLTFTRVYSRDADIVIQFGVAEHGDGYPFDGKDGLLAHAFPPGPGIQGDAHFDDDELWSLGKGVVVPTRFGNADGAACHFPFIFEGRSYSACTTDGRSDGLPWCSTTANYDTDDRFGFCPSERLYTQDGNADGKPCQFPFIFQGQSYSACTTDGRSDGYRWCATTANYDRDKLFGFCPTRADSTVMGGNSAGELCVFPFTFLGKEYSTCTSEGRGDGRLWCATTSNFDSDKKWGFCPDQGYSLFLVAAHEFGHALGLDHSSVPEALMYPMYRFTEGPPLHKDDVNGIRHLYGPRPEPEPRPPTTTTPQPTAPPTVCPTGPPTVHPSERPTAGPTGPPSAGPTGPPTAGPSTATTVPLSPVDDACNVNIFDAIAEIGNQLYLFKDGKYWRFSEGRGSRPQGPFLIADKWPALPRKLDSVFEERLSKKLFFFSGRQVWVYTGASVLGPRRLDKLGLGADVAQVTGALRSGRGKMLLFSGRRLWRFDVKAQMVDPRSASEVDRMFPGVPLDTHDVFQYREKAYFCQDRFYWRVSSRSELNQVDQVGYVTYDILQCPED

Compound | pIC50 [1] | pIC50 [2]
COc1ccc(OCCC[C@H](CC(=O)NO)C(=O)N[C@H](C(=O)NCCS(N)(=O)=O)C(C)(C)C)cc1 [Compound 56, 2-[N-[(2R)-2-(2'-Hydroxyamino-2'-oxo-ethyl)-5-[(4-methoxyphenyl)oxy]pentanoyl]-L-tert-leucyl]amino-ethanesulfonamide] | 8.64 | 9.59
CNC(=O)[C@@H]1Cc2ccccc2CN1C(=O)[C@H](CCCOc1ccc(OC)cc1)CC(=O)NO [Compound 57, N-[(2R)-2-(2'-Hydroxyamino-2'-oxo-ethyl)-5-[(4-methoxyphenyl)oxy]pentanoyl]-L-tetrahydroisoquinoline N-Methylamide] | 7.43 | 7.64
CNC(=O)[C@H](Cc1ccccc1)NC(=O)[C@@H](CC(=O)NO)CC(C)(C)COC [Compound 58, N-[(2R)-2-(2'-Hydroxyamino-2'-oxo-ethyl)-4,4-dimethyl-5-methoxy-pentanoyl]-L-phenylalanine N-Methylamide] | < 5.00 | 5.66
CNC(=O)[C@@H](NC(=O)[C@@H](CC(=O)NO)CC(C)(C)COC)C(C)(C)C [Compound 60, N-[(2R)-2-(2'-Hydroxyamino-2'-oxo-ethyl)-4,4-dimethyl-5-methoxy-pentanoyl]-L-tert-leucine N-Methylamide] | < 5.00 | 5.17
CCOc1ccc(OCCC[C@H](CC(=O)OCc2oc(=O)oc2C)C(=O)N[C@@H](Cc2ccccc2)C(=O)NC)cc1 [Compound 62] | 6.30 | 6.92
CNC(=O)[C@H](Cc1ccc(OC)cc1)NC(=O)[C@H](CCCCOc1ccc(OC)cc1)CC(=O)OCc1oc(=O)oc1C [Compound 64, (2S)-2-[(2R)-2-(2'-(5-Methyl-2-oxo-1,3-dioxolen-4-yl)-methylene-oxy-2'-oxo-ethyl]-6-[(4-methoxyphenyl)oxy]-hexanoyl]amino-3-(4-methoxy)phenylpropanoylmethylamide] | 5.64 | 6.01

The remaining lines, values ahead:

pIC50 [1] | pIC50 [2] | Compound
7.68 | 9.64 | COc1ccc(OCCC[C@H](CC(=O)NO)C(=O)N[C@H](C(=O)NC(C)(C)C)C(C)(C)C)cc1 [Compound 55, N-[(2R)-2-(2'-Hydroxyamino-2'-oxo-ethyl)-5-[(4-methoxyphenyl)oxy]-pentanoyl]-L-tert-leucine N-tert-Butylamide]
5.17 | 5.82 | CNC(=O)[C@H](Cc1ccc(OC)cc1)NC(=O)[C@@H](CC(=O)NO)CC(C)(C)COC [Compound 59, (2S)-2-[(2R)-2-(2'-Hydroxyamino-2'-oxo-ethyl)-4,4-dimethyl-5-methoxy-pentanoyl]amino-3-(4-methoxy)phenylpropanoyl-methylamide]
6.00 | 6.96 | CNC(=O)[C@H](Cc1ccccc1)NC(=O)[C@H](CCCOc1ccc(OC)cc1)CC(=O)OCc1oc(=O)oc1C [Compound 61]
5.80 | 6.85 | CNC(=O)[C@H](Cc1ccc(OC)cc1)NC(=O)[C@H](CCCOc1ccc(OC)cc1)CC(=O)OCc1oc(=O)oc1C [Compound 63, (2S)-2-[(2R)-2-(2'-(5-Methyl-2-oxo-1,3-dioxolen-4-yl)-methylene-oxy-2'-oxo-ethyl]-5-[(4-methoxyphenyl)oxy]-pentanoyl]amino-3-(4-methoxy)phenylpropanoylmethylamide]
